Literature values as cited in patent publication US20050019366A1, “Drug-coated stents and methods of use therefor” (priority 2002, published 2005).

System: restenosis after angioplasty
Details: probucol 500 mg; twice daily for four weeks prior and six months after angioplasty

CC(C)(Sc1cc(C(C)(C)C)c(O)c(C(C)(C)C)c1)Sc1cc(C(C)(C)C)c(O)c(C(C)(C)C)c1 [Probucol, probucol]
reduction of the rate of restenosis after angioplasty: ~50%
